# Measurements published in article PMC4794757 (Bioorganic & medicinal chemistry letters, 2016).
# Tested on: not listed separately
# Experiment: Rat iv PK
# Format: in vivo
# Details: rat iv clearance versus rat microsomal prediction
row,in vivo clearance lower than the in vitro predicted value [times],Structure (SMILES)
1,8,Cc1ccc2c(c1)C(=O)N(c1ccc(NC(=O)c3occc3C)c(F)c1)C2=O [13a]
2,4,Cc1ccoc1C(=O)Nc1ccc(N2C(=O)c3cccc(C)c3C2=O)cc1F [13b]

# Molecular target: hmGlu4 (Homo sapiens, UniProt Q14833)
# Experiment: mGlu4 counter-screen
# Format: cell-based
# Details: selectivity mGlu1 versus mGlu4
# Sequence of hmGlu4 (Q14833 33-912): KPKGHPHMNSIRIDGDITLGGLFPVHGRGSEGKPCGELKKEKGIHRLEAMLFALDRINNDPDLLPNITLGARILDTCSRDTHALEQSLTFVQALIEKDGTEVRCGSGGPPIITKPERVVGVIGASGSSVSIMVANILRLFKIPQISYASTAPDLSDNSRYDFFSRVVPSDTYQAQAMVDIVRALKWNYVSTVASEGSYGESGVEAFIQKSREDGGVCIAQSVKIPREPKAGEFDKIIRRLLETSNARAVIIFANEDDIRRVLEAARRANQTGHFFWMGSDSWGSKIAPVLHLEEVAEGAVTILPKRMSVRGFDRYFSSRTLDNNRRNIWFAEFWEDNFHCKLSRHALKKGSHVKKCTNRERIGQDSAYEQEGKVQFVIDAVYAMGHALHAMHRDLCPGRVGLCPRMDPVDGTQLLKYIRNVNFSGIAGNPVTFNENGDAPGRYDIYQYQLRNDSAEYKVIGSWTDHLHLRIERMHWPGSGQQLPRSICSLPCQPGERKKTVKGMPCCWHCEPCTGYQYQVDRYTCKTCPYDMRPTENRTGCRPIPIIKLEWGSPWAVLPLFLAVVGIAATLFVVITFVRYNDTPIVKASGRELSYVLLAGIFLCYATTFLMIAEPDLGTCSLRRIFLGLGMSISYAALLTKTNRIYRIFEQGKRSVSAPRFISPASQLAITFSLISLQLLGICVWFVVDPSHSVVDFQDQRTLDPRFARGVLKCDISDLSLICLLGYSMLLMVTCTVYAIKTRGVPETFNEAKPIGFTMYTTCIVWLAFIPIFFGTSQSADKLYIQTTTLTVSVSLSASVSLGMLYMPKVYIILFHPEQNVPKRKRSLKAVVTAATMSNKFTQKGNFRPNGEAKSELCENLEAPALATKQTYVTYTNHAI
row,Fold versus mGlu4 [fold],Structure (SMILES)
1,>16,Cc1cn[nH]c1C(=O)Nc1ccc(N2C(=O)c3cccc(F)c3C2=O)c(Cl)c1 [11aa]
2,>7.3,Cc1scnc1C(=O)Nc1ccc(N2C(=O)c3cccc(Cl)c3C2=O)c(Cl)c1 [11k]
3,>52,Cc1scnc1C(=O)Nc1ccc(N2C(=O)c3cccnc3C2=O)c(Cl)c1 [11n]
4,>2,Cc1cn[nH]c1C(=O)Nc1ccc(N2C(=O)c3cccc(C)c3C2=O)c(Cl)c1 [11w]

# Molecular target: hmGlu1 (Homo sapiens, UniProt Q13255)
# Experiment: Calcium mobilization mGlu1 assay
# Format: cell-based
# Details: not given
# Sequence of hmGlu1 (Q13255 19-1194): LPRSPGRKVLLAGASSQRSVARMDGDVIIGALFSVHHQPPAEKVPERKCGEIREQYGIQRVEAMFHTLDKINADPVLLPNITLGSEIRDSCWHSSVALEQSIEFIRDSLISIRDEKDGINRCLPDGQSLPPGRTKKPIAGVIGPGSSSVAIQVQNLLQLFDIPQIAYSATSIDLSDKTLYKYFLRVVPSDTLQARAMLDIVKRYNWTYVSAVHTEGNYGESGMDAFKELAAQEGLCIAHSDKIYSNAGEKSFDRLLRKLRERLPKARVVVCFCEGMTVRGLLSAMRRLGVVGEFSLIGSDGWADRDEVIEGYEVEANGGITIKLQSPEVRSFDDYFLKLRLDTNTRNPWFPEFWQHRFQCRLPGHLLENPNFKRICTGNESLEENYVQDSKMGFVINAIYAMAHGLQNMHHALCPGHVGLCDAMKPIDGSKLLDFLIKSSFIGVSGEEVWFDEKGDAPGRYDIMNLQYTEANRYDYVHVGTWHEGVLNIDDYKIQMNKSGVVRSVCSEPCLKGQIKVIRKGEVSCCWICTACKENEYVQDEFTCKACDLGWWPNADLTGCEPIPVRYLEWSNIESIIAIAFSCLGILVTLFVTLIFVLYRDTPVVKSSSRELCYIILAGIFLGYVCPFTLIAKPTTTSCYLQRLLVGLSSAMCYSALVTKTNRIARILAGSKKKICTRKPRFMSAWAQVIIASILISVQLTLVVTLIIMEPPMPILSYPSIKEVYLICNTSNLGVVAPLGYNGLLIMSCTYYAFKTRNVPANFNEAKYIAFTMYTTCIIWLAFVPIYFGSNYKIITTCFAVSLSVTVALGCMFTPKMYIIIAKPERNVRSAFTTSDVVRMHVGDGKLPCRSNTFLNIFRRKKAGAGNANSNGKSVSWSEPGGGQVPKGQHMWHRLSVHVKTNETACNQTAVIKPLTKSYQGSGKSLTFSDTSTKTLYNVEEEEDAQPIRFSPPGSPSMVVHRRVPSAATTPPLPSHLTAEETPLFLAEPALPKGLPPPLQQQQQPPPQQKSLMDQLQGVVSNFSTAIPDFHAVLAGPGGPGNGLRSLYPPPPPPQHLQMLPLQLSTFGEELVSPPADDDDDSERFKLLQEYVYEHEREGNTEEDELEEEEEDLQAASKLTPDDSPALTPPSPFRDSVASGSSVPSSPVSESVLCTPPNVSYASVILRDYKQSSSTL
row,EC50 [µM],Structure (SMILES)
1,1.5 to 1.8,Cc1ccsc1C(=O)Nc1ccc(N2C(=O)c3ccccc3C2=O)c(Cl)c1 [10d]

# Same assay, conditions: calcium mobilization, average of n=3 in triplicate
row,hmGlu1 EC50,Structure (SMILES)
1,inactive,CN1CCC[C@@H]1C(=O)Nc1ccc(N2C(=O)c3ccccc3C2=O)c(Cl)c1 [10l]
2,inactive,CN1CCC[C@H]1C(=O)Nc1ccc(N2C(=O)c3ccccc3C2=O)c(Cl)c1 [10m]

# Same assay, conditions: calcium mobilization, n=3
row,Structure (SMILES),mGlu1 pEC50 (±SEM)
1,Cc1[nH]ccc1C(=O)Nc1ccc(N2C(=O)c3ccccc3C2=O)c(Cl)c1 [10b],>5
2,Cc1ccsc1C(=O)Nc1ccc(N2C(=O)c3ccccc3C2=O)c(Cl)c1 [10d],5.72±0.27
3,Cc1ncoc1C(=O)Nc1ccc(N2C(=O)c3ccccc3C2=O)c(Cl)c1 [10f],>5
4,Cc1ocnc1C(=O)Nc1ccc(N2C(=O)c3ccccc3C2=O)c(Cl)c1 [10g],5.83±0.02
5,Cc1ncsc1C(=O)Nc1ccc(N2C(=O)c3ccccc3C2=O)c(Cl)c1 [10h],>5
6,Cc1cn[nH]c1C(=O)Nc1ccc(N2C(=O)c3ccccc3C2=O)c(Cl)c1 [10k],5.91±0.21
7,CN1CCC[C@@H]1C(=O)Nc1ccc(N2C(=O)c3ccccc3C2=O)c(Cl)c1 [10l],>5
8,CN1CCC[C@H]1C(=O)Nc1ccc(N2C(=O)c3ccccc3C2=O)c(Cl)c1 [10m],>5
9,Cc1ccc2c(c1)C(=O)N(c1ccc(NC(=O)c3ncoc3C)cc1Cl)C2=O [11a],7.38±0.11
10,Cc1ocnc1C(=O)Nc1ccc(N2C(=O)c3ccc(Cl)cc3C2=O)c(Cl)c1 [11c],7.26±0.13
11,Cc1cccc2c1C(=O)N(c1ccc(NC(=O)c3ncsc3C)cc1Cl)C2=O [11i],6.64±0.14
12,Cc1scnc1C(=O)Nc1ccc(N2C(=O)c3ccc(Cl)cc3C2=O)c(Cl)c1 [11j],7.30±0.15
13,Cc1scnc1C(=O)Nc1ccc(N2C(=O)c3cccc(Cl)c3C2=O)c(Cl)c1 [11k],5.86±0.28
14,Cc1ccc2c(c1)C(=O)N(c1ccc(NC(=O)c3nccn3C)cc1Cl)C2=O [11o],6.60±0.20
15,Cc1cccc2c1C(=O)N(c1ccc(NC(=O)c3nccn3C)cc1Cl)C2=O [11p],>5
16,Cn1ccnc1C(=O)Nc1ccc(N2C(=O)c3ccc(Cl)cc3C2=O)c(Cl)c1 [11q],6.58±0.13
17,Cn1ccnc1C(=O)Nc1ccc(N2C(=O)c3cccc(Cl)c3C2=O)c(Cl)c1 [11r],>5

# More lines, now with the values ahead:
row,mGlu1 pEC50 (±SEM),Structure (SMILES)
1,>5,Cn1ccnc1C(=O)Nc1ccc(N2C(=O)c3cccc(F)c3C2=O)c(Cl)c1 [11t]
2,>5,Cn1ccnc1C(=O)Nc1ccc(N2C(=O)c3cccnc3C2=O)c(Cl)c1 [11u]
3,6.25±0.16,Cc1ccc2c(c1)C(=O)N(c1ccc(NC(=O)c3[nH]ncc3C)cc1Cl)C2=O [11v]
4,5.36±0.22,Cc1cn[nH]c1C(=O)Nc1ccc(N2C(=O)c3cccc(C)c3C2=O)c(Cl)c1 [11w]
5,>5,Cc1cn[nH]c1C(=O)Nc1ccc(N2C(=O)c3cccc(Cl)c3C2=O)c(Cl)c1 [11y]
6,8.27±0.02,Cc1ccoc1C(=O)Nc1ccc(N2C(=O)c3ccc(Cl)cc3C2=O)cc1F [13c]
7,7.71±0.06,Cc1ccoc1C(=O)Nc1ccc(N2C(=O)c3ccc(F)cc3C2=O)cc1F [13d]
8,7.65±0.07,Cc1ccoc1C(=O)Nc1ccc(N2C(=O)c3cccc(F)c3C2=O)cc1F [13e]

# Same assay, conditions: effect of a single methyl group
row,potency increase relative to the unsubstituted thiazole [fold],Structure (SMILES)
1,~200,Cc1scnc1C(=O)Nc1ccc(N2C(=O)c3ccccc3C2=O)c(Cl)c1 [10i]
